Measured values reported in patent US20220193256A1, “NANO-ANTIBIOTICS BASED ON SINGLE-CHAIN DEXTRAN NANOPARTICLES” (priority 2019, published 2022).
Converted amounts (≈) assume the structure as drawn. Marks after values point to notes of the source that are not given here.

Columns and labels:
[1] = test system: P. aeruginosa; test: MIC 50 of free antibiotics and nanoconjugates; format: cell-based
Method: (§1) All test and quality control strains were recovered from frozen storage (−80° C.) and cultured at 35±2° C. for 18-24 h.
(§2) All test articles were dissolved in sterile ultra-pure water at a concentration of 2.56 mg/mL. […] 100 and 200 μL of drug-free medium was added to positive and negative control wells, respectively. Suspensions equivalent to a McFarland 0.5 standard were prepared for each test strain in 5 mL sterile phosphate-buffered saline (PBS) and further diluted 1:150 in CA-MHB to provide an inoculum of 2-8×10^5 CFU/mL. 100 μL of each inoculum was dispensed into all wells—except negative control wells (100 μL sterile water added)—to provide an inoculum of ˜5×10^5 CFU/well and a final volume of 200 μL per well. Assay plates were incubated according to CLSI M07-A10 guidelines of 35±2° C. for 16-20 h in air.

[2] = test system: S. aureus; test: MIC 50 of free antibiotics and nanoconjugates; format: cell-based
Method: as §1, §2

[3] = test system: biofilm of Pseudomonas Aeruginosa PAO1 gfp; test: Testing against biofilm; format: cell-based; conditions: 3-day biofilm treated for 12 h, tobramycin concentration 2 μg/mL
Method: Continuous biofilm of Pseudomonas Aeruginosa PAO1 gfp in LB medium was grown for 3 days. […] Images were obtained using a 20×/0.80 air objective with Zeiss LSM 800 Confocal laser scanning microscope. Simulated fluorescence projections and orthogonoal views sections were processed using ImageJ software. Data were analysed with COMSTAT2 software.

[4] = test system: P. aeruginosa ATCC 13437; test: MIC, antimicrobial susceptibility test (CLSI M07-A10); format: cell-based; conditions: replicates 1 and 2, as tobramycin concentration
Method: as §1, §2

[5] = test system: E. coli ATCC BAA-2469; test: as above; format: cell-based; conditions: Escherichia coli, ATCCBAA2469; read-out: Test Article MIC
Method: as §1, §2

[6] = test system: E. cloacae complex KPC 114; test: as above; format: cell-based
Method: as §1, §2

[7] = test system: K. pneumoniae ATCC BAA-2146; test: as above; format: cell-based; conditions: Klebsiella pneumoniae, ATCCBAA2146; read-out: Test Article MIC
Method: as §1, §2

[8] = test system: E. aerogenes KPC 108; test: as above; format: cell-based
Method: as §1, §2

[9] = test system: K. pneumoniae ATCC 43816; test: as above; format: cell-based
Method: as §1, §2

[10] = test system: P. aeruginosa ATCC 27853; test: as above; format: cell-based
Method: as §1, §2

[11] = test system: E. coli ATCC 25922; test: as above; format: cell-based
Method: as §1, §2

[12] = test system: A. baumannii NCTC 12156; test: as above; format: cell-based
Method: as §1, §2

[13] = test system: A. baumannii ATCC BAA-747; test: as above; format: cell-based
Method: as §1, §2

[14] = test system: PACC#8; test: MIC by visual inspection, P. aeruginosa panel; format: cell-based; conditions: Pseudomonas aeruginosa; PACC#8, clinical isolate; read-out: Test Article MIC
Method: (§3) The clinical isolates were obtained from the Biobank of the Hospital Donostia/Biodonostia (San Sebastian, Spain) with permission. MIC is obtained by visual inspection and considered the minimum concentration at which no bacterial growth can be detected (i. e. the buffer appears transparent) when bacteria was incubated at gradient concentration of test compound.

[15] = test system: PACC#10; test: MIC by visual inspection, P. aeruginosa panel; format: cell-based; conditions: Pseudomonas aeruginosa; PACC#10, clinical isolate, mucoid phenotype; read-out: Test Article MIC
Method: as §3

[16] = test system: PACC#6; test: MIC by visual inspection, P. aeruginosa panel; format: cell-based; conditions: Pseudomonas aeruginosa; read-out: Test Article MIC
Method: as §3

[17] = test system: PACC#7; test: MIC by visual inspection, P. aeruginosa panel; format: cell-based; conditions: Pseudomonas aeruginosa; PACC#7, clinical isolate, mucoid phenotype; read-out: Test Article MIC
Method: as §3

[18] = test system: PACC#5; test: MIC by visual inspection, P. aeruginosa panel; format: cell-based; conditions: Pseudomonas aeruginosa; PACC#5, clinical isolate, mucoid phenotype; read-out: Test Article MIC
Method: as §3

[19] = test system: P. aeruginosa ATCC 27853; test: MIC by visual inspection, P. aeruginosa panel; format: cell-based; conditions: Pseudomonas aeruginosa, ATCC27853; P. aeruginosa ATCC 27853, reference strain; read-out: Test Article MIC
Method: as §3

[20] = test system: PAO1 DSMZ 22644; test: MIC by visual inspection, P. aeruginosa panel; format: cell-based; conditions: Pseudomonas aeruginosa; PAO1 DSMZ 22644, investigational strain; read-out: Test Article MIC
Method: as §3

[21] = test system: PACC#9; test: MIC by visual inspection, P. aeruginosa panel; format: cell-based; conditions: Pseudomonas aeruginosa; PACC#9, clinical isolate, mucoid phenotype; read-out: Test Article MIC
Method: as §3

[22] = test system: PA14 DSMZ 19882; test: MIC by visual inspection, P. aeruginosa panel; format: cell-based; conditions: Pseudomonas aeruginosa; PA14 DSMZ 19882, investigational strain; read-out: Test Article MIC
Method: as §3

[23] = In vivo pharmacokinetic profile in the lungs after oropharyngeal deposition; set-up: species or system Sprague Dawley rats; conditions: male, Sprague Dawley, rat, lung homogenate, other: oropharyngeal deposition, 10 mg/kg
Method: The administration technique was oropharyngeal deposition. Following administration, terminal lung samples were collected at the following time-points: 0.083, 0.25, 0.5, 1, 2, 4, 8, 12, 24 h post-dose.
For the purpose of the invention, the AUC was measured by the trapezoidal method using the following formula: […]

[24] = Release profile test of tobramycin in PBS (dialysis tubes, LC-MS); format: in vitro ADME; conditions: PBS pH 7.4, 37° C.
Method: 1 mL dialysis tubes (Float-a-lyzer®) were used whose membrane is based on MWCO 8-10 kDa cellulose ester. […] The studies were performed in a chamber at 37° C. and stirring at 250 rpm. Samples were taken at different times and analyzed by LC-MS.

With `NC[C@H]1O[C@H](O[C@H]2[C@H](O)[C@@H](O[C@H]3O[C@H](CO)[C@@H](O)[C@H](N)[C@H]3O)[C@H](N)C[C@@H]2N)[C@H](N)C[C@@H]1O` [Tobramycin, tobramycin] the “MIC 50, Antibiotic conc.” value [1] was 0.5 to 1 µg/mL, the “MIC 50, Antibiotic conc.” value [2] was 0.5 to 1 µg/mL and the “% Biomass (μm^3/μm^2)” value [3] was 68.1%. For the same compound, the “% Biomass (μm^3/μm^2)” value ([3]; listed as tobramycin) was 68.1%, the “Test Article MIC” value ([4]; P. aeruginosa ATCC 13437, listed as Free Tobramycin) was 64 µg/mL and the MIC ([4]; Pseudomonas aeruginosa, ATCC13437, P. aeruginosa ATCC 13437, read-out: Test Article MIC) was 128 µg/mL (≈ 274 µM). For the same compound, the MIC [5] was over 128 µg/mL, the “Test Article MIC” value ([6]; E. cloacae complex KPC 114, replicates 1 and 2, as tobramycin concentration) was 32 µg/mL and the MIC ([6]; Enterobacter cloacae, read-out: Test Article MIC) was 32 µg/mL (≈ 68.4 µM). For the same compound, the MIC [7] was over 128 µg/mL, the “Test Article MIC” value ([8]; E. aerogenes KPC 108, replicates 1 and 2, as tobramycin concentration) was 4 µg/mL and the MIC ([8]; Klebsiella aerogenes, KPC108, read-out: Test Article MIC) was 4 µg/mL (≈ 8.56 µM). For the same compound, the “Test Article MIC” value ([9]; K. pneumoniae ATCC 43816, replicates 1 and 2, as tobramycin concentration) was 0.5 µg/mL, the MIC ([9]; Klebsiella pneumoniae, ATCC43816, read-out: Test Article MIC) was 0.5 µg/mL (≈ 1.07 µM) and the “Test Article MIC” value ([10]; P. aeruginosa ATCC 27853, replicates 1 and 2, as tobramycin concentration) was 1^b μg/mL. The MIC ([10]; Pseudomonas aeruginosa, ATCC27853, read-out: Test Article MIC) was 1 µg/mL (≈ 2.14 µM), the “Test Article MIC” value ([11]; E. coli ATCC 25922, replicates 1 and 2, as tobramycin concentration) was 2^a μg/mL and the MIC ([11]; Escherichia coli, ATCC25922, read-out: Test Article MIC) was 2 µg/mL (≈ 4.28 µM). For the same compound, the “Test Article MIC” value ([12]; A. baumannii NCTC 12156, replicates 1 and 2, as tobramycin concentration) was 4 µg/mL, the MIC ([12]; Acinetobacter baumannii, NCTC12156, read-out: Test Article MIC) was 4 µg/mL (≈ 8.56 µM) and the “Test Article MIC” value ([13]; A. baumannii ATCC BAA-747, replicates 1 and 2, as tobramycin concentration) was 0.5 µg/mL. For the same compound, the MIC ([13]; Acinetobacter baumannii, ATCCBAA747, read-out: Test Article MIC) was 0.5 µg/mL (≈ 1.07 µM), the MIC [14] was 0.5 µg/mL (≈ 1.07 µM) and the MIC [15] was 1 µg/mL (≈ 2.14 µM). For the same compound, the MIC [16] was at least 4 µg/mL, the MIC [17] was 0.5 µg/mL (≈ 1.07 µM) and the MIC [18] was 0.5 µg/mL (≈ 1.07 µM). The MIC [19] was 0.5 µg/mL (≈ 1.07 µM), the MIC [20] was 0.5 µg/mL (≈ 1.07 µM) and the MIC [21] was 0.5 µg/mL (≈ 1.07 µM). The MIC [22] was 0.5 µg/mL (≈ 1.07 µM), the AUC [23] was 1110 µg·h/mL and the “Tobramycin released (%)” value ([24]; time 0 hour) was 0.30%. The “Tobramycin released (%)” value ([24]; time 1 hour) was 2.91%, the “Tobramycin released (%)” value ([24]; time 2 hour) was 7.57% and the “Tobramycin released (%)” value ([24]; time 4 hour) was 19.03%. For the same compound, the “Tobramycin released (%)” value ([24]; time 8 hour) was 28.72%, the “Tobramycin released (%)” value ([24]; time 24 hour) was 58.41% and the “Tobramycin released (%)” value ([24]; time 48 hour) was 78.88%. The “Tobramycin released (%)” value ([24]; time 72 hour) was 87.20%.

In the case of “Colistin sulfate [Free Colistin sulfate]”, the “MIC 50, Antibiotic conc.” value [1] is reported as 1 to 5 µg/mL.

With “gentamycin sulfate [Free Gentamycin sulfate]” the “MIC 50, Antibiotic conc.” value [1] was 1 to 5 µg/mL and the “MIC 50, Antibiotic conc.” value [2] was 1 to 5 µg/mL.
